Here are results for 3 molecules from patent publication US20180021360A1, “Combination Therapy Regimen For Treatment Of Selected HCV Genotypes” (JANSSEN PHARMACEUTICALS, INC., priority 2016, published 2018).

Data set [1] can be described thus: Phase-1 drug-drug interaction study of Odalasvir, Simeprevir and Compound (III) in healthy volunteers. Type of data set: in vivo, human. As to conditions: for increase of exposure caused by Odalasvir / increase of exposure caused by SMV: DDI study results. The text has this: The following daily doses were employed:
The nature of data set [2]: PK of single agents vs fixed dose combinations, single dose in healthy volunteers (Example 13). Conditions: mean ± SD; for Cmax: Arm 4: FDC01 (SMV 100 mg + ODV 50 mg spray dried with copovidone and poloxamers + Compound (III) 800 mg). Type of data set: in vivo, human. As for the experimental part:
SMV (100 mg), ODV (50 mg), and Compound (III) (800 mg) were administered as three different formulations or together as single doses in vivo to healthy volunteers. The arms of the study included: • Arm 1 (Reference Arm): Single oral doses of single agents, one SMV 100-mg capsule, one ODV 50-mg tablet as granule layered solid dispersion with copovidone and poloxamers, and two Compound (III) 400-mg tablets, administered together. • Arm 2: Single oral dose of fixed dose combination (FDC02): SMV 100 mg+ODV 50 mg as a spray dried solid dispersion with HPMC-AS L in a ratio ODV/HPMC-AS L 1/1 w/w+Compound (III) 800 mg • Arm 3: Single oral dose of fixed dose combination (FDC04): SMV 100 mg+ODV 50 mg as a spray dried solid dispersion with HPMC-AS L in a ratio ODV/HPMC-AS L 1/3 w/w+Compound (III) 800 mg • Arm 4: Single oral dose of fixed dose combination (FDC01): SMV 100 mg+ODV 50 mg as a spray dried solid dispersion with copovidone and poloxamers+Compound (III) 800 mg
PK parameters, including Cmax, tmax, AUClast, and AUC∞ were measured for Compound (III), ODV, SMV, and metabolites Compound A-1 and Compound A-3 for each Arm of the study. Arms that included fixed dose combinations (FDC) (Arm 2, Arm 3, and Arm 4) were then compared to a single oral dose (Arm 1, the reference Arm). Table 9, Table 10, Table 11, Table 12 and Table 13 display relevant PK parameters and FIG. 9, FIG. 10, FIG. 11, FIG. 12, and FIG. 13 depict the plasma concentration over time of SMV, ODV, Compound A-1, and Compound A-3 for each Arm of the study.

A short description of data set [3]: Phase 2a open-label combination study, pharmacokinetics. Type of data set: in vivo, human. Conditions: in vivo. As for the experimental part:
A randomized, Phase 2a, open-label study was carried out to evaluate the safety, pharmacokinetics and efficacy of the combination of Compound (III), Odalasvir and Simeprevir in Genotype 1 treatment-naïve subjects with chronic hepatitis C. Other treatment-naïve subjects included Genotype 2, 3, 4, 5 and 6.
The aim of the study was to determine the efficacy, pharmacokinetics (PK), and safety of Compound (II)+Odalasvir±SMV in HCV-infected subjects.
This was an open-label study evaluating various dosing regimens of Compound (III)+Odalasvir±SMV for 6-8 weeks in treatment-nave HCV-infected subjects with varying clinical characteristics (e.g., GT 1 or 3, presence/absence of compensated Child Pugh A cirrhosis). Efficacy, PK and safety evaluations were conducted during and through 24 weeks post dosing. Up to 15 cohorts were enrolled; data was generated from cohorts that have completed dosing.

In another data set the test system is HCV genotype 3. The data set is described as follows: activity against genotype 3 in vitro. More on the design: species or system hepatitis C virus.
The target in another data set is T1, BCRP (Homo sapiens, UniProt Q9UNQ0).
T1 sequence (Q9UNQ0 1-655): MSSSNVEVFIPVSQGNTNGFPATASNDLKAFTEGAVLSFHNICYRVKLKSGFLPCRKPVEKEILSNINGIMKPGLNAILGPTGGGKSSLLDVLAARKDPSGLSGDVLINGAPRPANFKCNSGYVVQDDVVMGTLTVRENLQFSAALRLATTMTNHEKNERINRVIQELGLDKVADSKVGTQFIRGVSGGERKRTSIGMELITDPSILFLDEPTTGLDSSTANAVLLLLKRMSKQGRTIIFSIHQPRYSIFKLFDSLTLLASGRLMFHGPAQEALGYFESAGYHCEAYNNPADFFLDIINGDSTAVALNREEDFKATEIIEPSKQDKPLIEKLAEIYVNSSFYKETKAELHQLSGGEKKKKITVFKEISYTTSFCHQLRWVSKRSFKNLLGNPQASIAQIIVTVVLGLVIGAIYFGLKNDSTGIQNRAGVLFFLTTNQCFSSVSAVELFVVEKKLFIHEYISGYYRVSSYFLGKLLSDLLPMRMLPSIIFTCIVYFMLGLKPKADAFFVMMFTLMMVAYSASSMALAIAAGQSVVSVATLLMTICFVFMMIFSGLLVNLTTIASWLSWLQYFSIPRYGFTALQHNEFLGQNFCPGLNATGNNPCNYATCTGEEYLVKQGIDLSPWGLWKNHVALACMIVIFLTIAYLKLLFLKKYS
As to conditions: cited from earlier work.

Another data set has as its target T2, OATP1B1 (Homo sapiens, UniProt Q9Y6L6).
T2 sequence (Q9Y6L6 1-691): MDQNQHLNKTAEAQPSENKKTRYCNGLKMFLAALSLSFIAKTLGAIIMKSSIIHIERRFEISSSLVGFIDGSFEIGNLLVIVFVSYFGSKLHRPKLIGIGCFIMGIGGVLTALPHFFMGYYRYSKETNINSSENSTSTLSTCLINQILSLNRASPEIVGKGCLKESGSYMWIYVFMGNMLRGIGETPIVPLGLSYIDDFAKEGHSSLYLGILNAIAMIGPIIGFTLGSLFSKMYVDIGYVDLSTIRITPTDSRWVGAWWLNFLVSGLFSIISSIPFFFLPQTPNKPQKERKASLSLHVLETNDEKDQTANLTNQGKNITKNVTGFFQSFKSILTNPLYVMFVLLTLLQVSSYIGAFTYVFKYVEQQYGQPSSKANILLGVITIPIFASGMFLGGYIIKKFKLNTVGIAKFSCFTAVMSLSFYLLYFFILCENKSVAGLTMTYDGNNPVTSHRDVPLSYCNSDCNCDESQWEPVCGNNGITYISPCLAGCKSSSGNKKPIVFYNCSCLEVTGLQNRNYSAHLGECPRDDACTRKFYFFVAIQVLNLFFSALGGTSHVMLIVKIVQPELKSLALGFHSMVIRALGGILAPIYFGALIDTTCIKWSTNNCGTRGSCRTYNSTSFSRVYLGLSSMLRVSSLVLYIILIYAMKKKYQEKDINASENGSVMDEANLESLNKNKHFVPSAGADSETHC
As to conditions: cited from earlier work.

For another data set, the target named is T3, OATP1B3 (Homo sapiens, UniProt Q9NPD5).
T3 sequence (Q9NPD5 1-702): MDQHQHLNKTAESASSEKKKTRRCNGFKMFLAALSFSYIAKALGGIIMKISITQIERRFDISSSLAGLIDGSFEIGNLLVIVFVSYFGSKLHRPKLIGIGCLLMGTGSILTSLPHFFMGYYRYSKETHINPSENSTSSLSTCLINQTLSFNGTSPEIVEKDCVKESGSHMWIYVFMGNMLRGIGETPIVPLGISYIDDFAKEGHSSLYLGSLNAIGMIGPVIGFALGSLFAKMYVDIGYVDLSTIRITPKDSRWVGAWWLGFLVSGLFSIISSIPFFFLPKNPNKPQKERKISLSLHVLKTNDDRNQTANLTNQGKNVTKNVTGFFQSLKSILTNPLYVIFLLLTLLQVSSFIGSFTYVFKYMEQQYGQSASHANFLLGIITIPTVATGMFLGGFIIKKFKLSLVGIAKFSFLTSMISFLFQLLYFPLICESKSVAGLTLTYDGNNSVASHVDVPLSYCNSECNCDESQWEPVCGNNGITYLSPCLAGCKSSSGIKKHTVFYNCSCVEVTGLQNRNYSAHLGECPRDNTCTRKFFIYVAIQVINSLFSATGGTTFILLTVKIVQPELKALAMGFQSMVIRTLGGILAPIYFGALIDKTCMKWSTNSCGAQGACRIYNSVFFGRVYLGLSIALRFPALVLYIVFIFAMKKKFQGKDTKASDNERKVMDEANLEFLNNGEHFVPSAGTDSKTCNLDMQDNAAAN
As to conditions: cited from earlier work.

The next data set concerns CYP. The data set is described as follows: CYP inhibition potential. As to conditions: any CYP.
Setting [4] is: Arm 1 (reference): single agents.

Turning to `C[C@H](NP(=O)(O)OC[C@@]1(F)O[C@@H](n2ccc(=O)[nH]c2=O)[C@](C)(O)[C@@H]1O)C(=O)O` [Compound A-3], in data set [1], the “increase of exposure caused by Odalasvir” value is recorded as 2.6 × and the “increase of exposure caused by SMV” value was found to be 1.6 ×. Further, in data set [2] (setting [4]), the t1/2term is on record as 2.6 ± 1.4 h. Moreover, in data set [2] (Arm 2: FDC02), the AUClast turned out to be 790 ± 157 ng·h/mL, the “AUC∞” value came to 817 ± 133 ng·h/mL and the t1/2term is reported as 2.3 ± 0.6 h. Further, the t1/2term in data set [2] (Arm 3: FDC04) amounted to 2.9 ± 1.5 h. In data set [2], the Cmax turned out to be 197 ± 62.1 ng/mL. In data set [2] (Arm 4: FDC01), the AUClast worked out at 909 ± 244 ng·h/mL, the “AUC∞” value was 926 ± 245 ng·h/mL and the t1/2term was found to be 2.5 ± 0.7 h.
Take `C[C@]1(O)[C@H](n2ccc(=O)[nH]c2=O)O[C@](F)(CO)[C@H]1O` [Compound A-1]: in data set [1], the “increase of exposure caused by Odalasvir” value amounted to 1.5 ×. Moreover, the “increase of exposure caused by SMV” value in data set [1] is on record as “no apparent effect”. Further, the “change of A-1 exposure on increasing the Compound (III) dose from 400 to 800 mg” value in data set [3] was “less than proportionally”. The t1/2term was determined as 19.6 ± 2.7 h in data set [2] (setting [4]), 20.5 ± 3.3 h in data set [2] (Arm 2: FDC02), 20.2 ± 3.5 h in data set [2] (Arm 3: FDC04) and 18.3 ± 3.5 h in data set [2] (Arm 4: FDC01). In addition, the “AUC∞” value amounted to 4369 ± 1345 ng·h/mL in data set [2] (Arm 2: FDC02) and 4555 ± 787 ng·h/mL in data set [2] (Arm 4: FDC01). Further, the AUClast in data set [2] (Arm 3: FDC04) was found to be 4714 ± 1310 ng·h/mL; in data set [2] (Arm 4: FDC01), 4693 ± 1418 ng·h/mL. Besides, the Cmax in data set [2] stood at 607 ± 208 ng/mL.
For the molecule `CC(C)OC(=O)[C@H](C)N[P@](=O)(OC[C@@]1(F)O[C@@H](n2ccc(=O)[nH]c2=O)[C@](C)(O)[C@@H]1O)Oc1ccccc1` [Compound (III), isopropyl ((S)-(((2S,3S,4R,5R)-5-(2,4-dioxo-3,4-dihydropyrimidin-1 (2H)-yl)-2-fluoro-3,4-dihydroxy-4-methyltetrahydrofuran-2-yl)methoxy)(phenoxy)phosphoryl)-L-alaninate], the “increase of exposure caused by Odalasvir” value in data set [1] amounted to 4 ×. In addition, in data set [1], the “increase of exposure caused by SMV” value was determined as 3 ×. For the same molecule, the “bioavailability when SMV and ODV are co-administered with Compound (III), compared to Compound (III) alone” value in data set [1] (both, human, in vivo) is listed as “approximately 8 fold”. Also, the t1/2term is listed as 0.6 ± 0.1 h in data set [2] (setting [4]), 0.7 ± 0.2 h in data set [2] (Arm 2: FDC02), 0.7 ± 0.1 h in data set [2] (Arm 3: FDC04) and 0.6 ± 0.1 h in data set [2] (Arm 4: FDC01). Also, in the data set with HCV genotype 3, the “activity against genotype 3 in vitro” value was “effective”. The “in vitro inhibition of BCRP” value on BCRP was “no in vitro inhibition”. The “in vitro inhibition of OATP1B1” value at OATP1B1 is “no in vitro inhibition”. The “in vitro inhibition of OATP1B3” value at OATP1B3 is given as “no in vitro inhibition”. For the same molecule, the CYP inhibition potential entry in the data set with CYP is reported as “limited”.

What is called Cmax is the peak of the concentration-time curve.
